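These data come from cells grown in 96-well plates and exposed to compound for 48 hours at five concentrations. Here, GI50 denotes the concentration required for 50% inhibition of growth. At the TGI there is no net growth.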
Tests used:
Assay in all cases: NCI anticancer screen, dose series, 48 h
M14 melanoma = system: M14 melanoma
SR leukemia = system: SR leukemia
NCI/ADR-RES ovarian = system: NCI/ADR-RES ovarian
HCC-2998 colon = system: HCC-2998 colon
KM12 colon = system: KM12 colon
COLO 205 colon = system: COLO 205 colon
UACC-62 melanoma = system: UACC-62 melanoma
OVCAR-3 ovarian = system: OVCAR-3 ovarian
SNB-19 CNS = system: SNB-19 CNS
UACC-257 melanoma = system: UACC-257 melanoma
NCI-H460 lung = system: NCI-H460 lung
HCT-116 colon = system: HCT-116 colon
OVCAR-5 ovarian = system: OVCAR-5 ovarian
HL-60(TB) leukemia = system: HL-60(TB) leukemia
SF-539 CNS = system: SF-539 CNS
MDA-MB-435 = system: MDA-MB-435
HOP-92 NSCLC = system: HOP-92 NSCLC
ACHN renal = system: ACHN renal
MOLT-4 leukemia = system: MOLT-4 leukemia
CCRF-CEM leukemia = system: CCRF-CEM leukemia
OVCAR-8 ovarian = system: OVCAR-8 ovarian
U251 CNS = system: U251 CNS
A549 NSCLC = system: A549 NSCLC
SF-268 CNS = system: SF-268 CNS
SNB-75 CNS = system: SNB-75 CNS
NCI-H522 lung = system: NCI-H522 lung
MDA-MB-231 breast = system: MDA-MB-231 breast
SK-MEL-2 melanoma = system: SK-MEL-2 melanoma

`Nc1c(C(=O)Nc2cccc(C(F)(F)F)c2)sc2nc3c(cc12)CCCCCC3` showed a GI50 (M14 melanoma) of 3.4 µM, a TGI (M14 melanoma) of 18 µM and a GI50 (SR leukemia) of 3.77 µM. It also gave a TGI (SR leukemia) of 19 µM, a GI50 (NCI/ADR-RES ovarian) of 2690 nM and a TGI (NCI/ADR-RES ovarian) of 10.9 µM. For the same compound, the GI50 (HCC-2998 colon) was 12.3 µM, the TGI (HCC-2998 colon) was > 100 µM and the GI50 (KM12 colon) was 4.08 µM. It also gave a TGI (KM12 colon) of 23.5 µM, a GI50 (COLO 205 colon) of 3.07 µM and a TGI (COLO 205 colon) of 14 µM. It also gave a GI50 (UACC-62 melanoma) of 3.25 µM, a TGI (UACC-62 melanoma) of 21.5 µM and a GI50 (OVCAR-3 ovarian) of 2170 nM. It also gave a TGI (OVCAR-3 ovarian) of 4.88 µM, a GI50 (SNB-19 CNS) of 3.16 µM and a TGI (SNB-19 CNS) of 13.1 µM. The GI50 (UACC-257 melanoma) was 4.37 µM, the TGI (UACC-257 melanoma) was 22.7 µM and the GI50 (NCI-H460 lung) was 2320 nM. It also gave a TGI (NCI-H460 lung) of 7.52 µM, a GI50 (HCT-116 colon) of 1690 nM and a TGI (HCT-116 colon) of 4.34 µM. The GI50 (OVCAR-5 ovarian) was 3.29 µM, the TGI (OVCAR-5 ovarian) was 13.7 µM and the GI50 (HL-60(TB) leukemia) was 11.3 µM. For the same compound, the TGI (HL-60(TB) leukemia) was > 100 µM, the GI50 (SF-539 CNS) was 1710 nM and the TGI (SF-539 CNS) was 3.37 µM. The GI50 (MDA-MB-435) was 2100 nM, the TGI (MDA-MB-435) was 13.9 µM and the GI50 (HOP-92 NSCLC) was 1700 nM. The TGI (HOP-92 NSCLC) was 4.86 µM, the GI50 (ACHN renal) was 1850 nM and the TGI (ACHN renal) was 4.46 µM. It also gave a GI50 (MOLT-4 leukemia) of 11.1 µM, a TGI (MOLT-4 leukemia) of 35.1 µM and a GI50 (CCRF-CEM leukemia) of 5.73 µM. The TGI (CCRF-CEM leukemia) was > 100 µM, the GI50 (OVCAR-8 ovarian) was 2240 nM and the TGI (OVCAR-8 ovarian) was 6.82 µM. For the same compound, the GI50 (U251 CNS) was 2580 nM, the TGI (U251 CNS) was 10.5 µM and the GI50 (A549 NSCLC) was 1770 nM. The TGI (A549 NSCLC) was 5.08 µM, the GI50 (SF-268 CNS) was 2360 nM and the TGI (SF-268 CNS) was 6.77 µM. For the same compound, the GI50 (SNB-75 CNS) was 1730 nM, the TGI (SNB-75 CNS) was 3.47 µM and the GI50 (NCI-H522 lung) was 4.09 µM. The TGI (NCI-H522 lung) was 26.9 µM, the GI50 (MDA-MB-231 breast) was 3.09 µM and the TGI (MDA-MB-231 breast) was 10.6 µM. The GI50 (SK-MEL-2 melanoma) was 4.35 µM.

— PubChem BioAssay (NCI)
